Data published in ChEMBL document CHEMBL5113383, “Application of the All-Hydrocarbon Stapling Technique in the Design of Membrane-Active Peptides” (J Med Chem, 2022).

Test: Hemolytic activity in rabbit erythrocytes
Format: toxicity, cell-based, Oryctolagus cuniculus, Erythrocyte

Compound | HC50 [nM]
CC[C@H](C)[C@H](NC(=O)CNC(C)=O)C(=O)NCC(=O)N[C@@H](C)C(=O)N[C@H](C(=O)N[C@@H](CC(C)C)C(=O)N[C@@H](CCCCN)C(=O)N[C@H](C(=O)N[C@@H](CC(C)C)C(=O)N[C@H](C(=O)N[C@H](C(=O)NCC(=O)N[C@@H](CC(C)C)C(=O)N1CCC[C@H]1C(=O)N[C@]1(C)CCCCCC/C=C\CCC[C@@](C)(C(=O)N[C@@H](CCCCN)C(=O)N[C@@H](CCCNC(=N)N)C(=O)N[C@@H](CCC(N)=O)C(=O)N[C@@H](CCC(N)=O)C(N)=O)NC(=O)[C@H](CCCCN)NC(=O)[C@H]([C@@H](C)CC)NC(=O)[C@H](Cc2c[nH]c3ccccc23)NC(=O)[C@H](CO)NC(=O)[C@H]([C@@H](C)CC)NC(=O)[C@H](CC(C)C)NC1=O)[C@@H](C)O)[C@@H](C)O)C(C)C)C(C)C | 700
CC[C@H](C)[C@H](NC(=O)CNC(C)=O)C(=O)NCC(=O)N[C@@H](C)C(=O)N[C@H](C(=O)N[C@@H](CC(C)C)C(=O)N[C@@H](CCCCN)C(=O)N[C@H](C(=O)N[C@@H](CC(C)C)C(=O)N[C@H](C(=O)N[C@H](C(=O)NCC(=O)N[C@@H](CC(C)C)C(=O)N1CCC[C@H]1C(=O)N[C@@H](C)C(=O)N[C@@H](CC(C)C)C(=O)N[C@H](C(=O)N[C@@H](CO)C(=O)N[C@@H](Cc1c[nH]c2ccccc12)C(=O)N[C@H](C(=O)N[C@@H](CCCCN)C(=O)N[C@@H](CCCNC(=N)N)C(=O)N[C@@H](CCCCN)C(=O)N[C@@H](CCCNC(=N)N)C(=O)N[C@@H](CCC(N)=O)C(=O)N[C@@H](CCC(N)=O)C(N)=O)[C@@H](C)CC)[C@@H](C)CC)[C@@H](C)CC)[C@@H](C)O)C(C)C)C(C)C | 2600
